Reference: US11994513B2, “Diagnostic and prognostic methods for estrogen-induced cancers” (The University of Newcastle, priority 2018, dated 2024)

Columns and labels:
Ishikawa organoids = experiment: 3D organoid formation assay: colony size and proliferation (CellTiter-Glo 3D); format: cell-based, human
Experimental: The human endometrial adenocarcinoma cell line Ishikawa (Sigma #99040201) was cultured in MEM (HyClone) medium supplemented with 5% heat-inactivated FBS (Bovogen Biologicals), 2 mmol/L L-glutamine (HyClone), and antibiotics (50 U/mL penicillin, 50 mg/L streptomycin; Gibco) in a humidified atmosphere at 37° C. containing 5% CO2. Cell line authentication was done by short tandem repeat (STR) DNA profiling method and mycoplasma contamination in cells was routinely conducted using MycoAlert™ Plus Mycoplasma detection kit (Lonza). 5,000 Ishikawa cells/well were seeded in triplicate in 100 μL medium onto 96-well tissue culture plates coated with a thin layer of reduced growth factor basement membrane extract (Cultrex® RGF BME: Trevigen) and were allowed to form organoids. After 24 hours, the organoids were subjected to desired hormonal treatments: 10 nmol/L estrogen ((β-Estradiol, Sigma #E8875) and 100 nmol/L progesterone (Medroxyprogesterone 17-acetate, Sigma #M1629). The culture medium containing desired hormone concentration was changed on every 48 hours. On day 7, colony size was measured and images were photographed using JuLI™ Stage Real-Time Cell History Recorder (NanoEnTek) in an incubator at 37° C. humidified with 5% CO2. 72 hours post-treatment, cells were incubated with CellTiter-Glo® 3D Reagent (Promega) for 30 minutes at room temperature and luminescence signal was recorded using the FLUOstar OPTIMA (BMG Labtech). Ishikawa 3D organoids were fixed in 4% paraformaldehyde (Electron Microscopy Sciences, ProSciTech) for 20 minutes and processed for immunofluorescence, as described previously (Sahoo et al, Oncotarget, 2017, 8:71400-17).

ALPPL2 mRNA expression = experiment: Quantitative real-time PCR of ALPPL2 mRNA in hormone-treated Ishikawa organoids; format: cell-based, human; settings: FIG. 2C
Experimental: (§1) 5,000 Ishikawa cells/well were seeded in triplicate in 100 μL medium onto 96-well tissue culture plates coated with a thin layer of reduced growth factor basement membrane extract (Cultrex® RGF BME: Trevigen) and were allowed to form organoids. After 24 hours, the organoids were subjected to desired hormonal treatments: 10 nmol/L estrogen ((β-Estradiol, Sigma #E8875) and 100 nmol/L progesterone (Medroxyprogesterone 17-acetate, Sigma #M1629). The culture medium containing desired hormone concentration was changed on every 48 hours. On day 7, colony size was measured and images were photographed using JuLI™ Stage Real-Time Cell History Recorder (NanoEnTek) in an incubator at 37° C. humidified with 5% CO2. 72 hours post-treatment, cells were incubated with CellTiter-Glo® 3D Reagent (Promega) for 30 minutes at room temperature and luminescence signal was recorded using the FLUOstar OPTIMA (BMG Labtech). […]
Total RNA was isolated from estrogen or progesterone treated mouse uterus and Ishikawa cells using RNeasy Mini kit (Qiagen) following manufacturer's instructions. […] Quantitative real-time PCR (Q-PCR) was performed using RT^2 SYBR Green ROX qPCR Mastermix (Qiagen) on a 7900 HT FAST Thermocycler (Applied Biosystems) through a pre-incubation step, and 40 amplification cycles (including denaturation, annealing and extension segments). […]

ALPPL2 protein = experiment: Western blot of ALPPL2 protein in hormone-treated Ishikawa cells and organoids; format: cell-based, human; settings: Ishikawa cells and organoids treated with E2 and/or P4, FIGS. 2D and 2E
Experimental: as §1
Human endometrial cancer samples, mouse uterine tissue, and Ishikawa cells were lysed in ice-cold RIPA (radioimmunoprecipitation assay) buffer (50 mmol/L Tris-HCl pH 7.5, 150 mmol/L NaCl, 1% NP-40, 0.5% Sodium deoxycholate, 0.1% SDS) containing protease and phosphatase inhibitors (Sigma). […] The membrane was washed again in TBS-T, developed using a chemiluminescent substrate (Millipore) for detection of HRP and the protein bands were detected by chemiluminescence (Fujifilm LAS-4000). […]

mice uteri = experiment: Hormone pellet treatment of ovariectomized mice: uterine histology and ALPPL2 immunohistochemistry; format: in vivo, C57BL/6 mice

β-Estradiol [E2]
proliferation of Ishikawa organoids (Ishikawa organoids; E2 10 nmol/L, 3D culture, 72 hours post-treatment, FIG. 2B): increased
size of Ishikawa organoids (Ishikawa organoids; E2 10 nmol/L, 3D culture, day 7, FIG. 2A): increased
ALPPL2 mRNA expression (ALPPL2 mRNA expression; E2 treated organoids, 10 nmol/L): significantly upregulated
ALPPL2 protein expression (western blot, total cell lysate) (ALPPL2 protein): Overexpression of ALPPL2
ALPPL2 expression in uterus (immunohistochemical analysis) (mice uteri; E2 pellet for 3 months, FIG. 3A): increase in ALPPL2 expression
endometrial hyperplasia (histological analysis) (mice uteri; E2 pellet for 3 months, compared to E2 and P4 treated uteri, data not shown): increased endometrial hyperplasia

CC(=O)[C@H]1CC[C@H]2[C@@H]3CCC4=CC(=O)CC[C@]4(C)[C@H]3CC[C@]12C [P4, progesterone]
mitogenic action of E2 on Ishikawa organoids (size and proliferation) (Ishikawa organoids; P4 100 nmol/L with E2 10 nmol/L, FIGS. 2A and 2B): counterbalanced
effect on E2-induced ALPPL2 mRNA upregulation (ALPPL2 mRNA expression; P4 100 nmol/L with E2 10 nmol/L): inhibited this effect
effect on E2-induced ALPPL2 expression in uterus (immunohistochemical analysis) (mice uteri; E2 and P4 pellets for 3 months, FIG. 3A): attenuated the effect of E2
